Test results as given in ChEMBL document CHEMBL4184109, “Design, synthesis, and structure-activity relationship studies of novel tetrazole antifungal agents with potent activity, broad antifungal spectrum and high selectivity” (Bioorg Med Chem Lett, 2018).
In brackets after ≈: the same amount, converted by molar mass.

Legend:
Candida albicans [1] = test: Antifungal activity against Candida albicans Y0109 after 24 hrs by serial dilution method; assay type: functional; conditions: Y0109, 24 h
Candida albicans [2] = test: Antifungal activity against Candida albicans SC5314 after 24 hrs by serial dilution method; assay type: functional; conditions: SC5314, 24 h
Candida parapsilosis = test: Antifungal activity against Candida parapsilosis ATCC 22019 after 24 hrs by serial dilution method; assay type: functional; conditions: Lodderomyces parapsilosis, ATCC 22019, 24 h
Nakaseomyces glabratus = test: Antifungal activity against Candida glabrata after 24 hrs by serial dilution method; assay type: functional
Cryptococcus neoformans = test: Antifungal activity against Cryptococcus neoformans after 72 hrs by serial dilution method; assay type: functional
Aspergillus fumigatus = test: Antifungal activity against Aspergillus fumigatus after 48 hrs by serial dilution method; assay type: functional
Trichophyton rubrum = test: Antifungal activity against Trichophyton rubrum by serial dilution method; assay type: functional
Nannizzia gypsea = test: Antifungal activity against Microsporum gypseum by serial dilution method; assay type: functional
Cytochrome P450 1A2 = biological target: T1, Cytochrome P450 1A2 (Homo sapiens, UniProt P05177); test: Inhibition of CYP1A2 in human liver microsomes using phenacetin as substrate preincubated for 10 mins with substrate followed by NADPH addition measured after 15 mins by LC/MS/MS analysis; assay type: ADME
T1 sequence (P05177 whole entry): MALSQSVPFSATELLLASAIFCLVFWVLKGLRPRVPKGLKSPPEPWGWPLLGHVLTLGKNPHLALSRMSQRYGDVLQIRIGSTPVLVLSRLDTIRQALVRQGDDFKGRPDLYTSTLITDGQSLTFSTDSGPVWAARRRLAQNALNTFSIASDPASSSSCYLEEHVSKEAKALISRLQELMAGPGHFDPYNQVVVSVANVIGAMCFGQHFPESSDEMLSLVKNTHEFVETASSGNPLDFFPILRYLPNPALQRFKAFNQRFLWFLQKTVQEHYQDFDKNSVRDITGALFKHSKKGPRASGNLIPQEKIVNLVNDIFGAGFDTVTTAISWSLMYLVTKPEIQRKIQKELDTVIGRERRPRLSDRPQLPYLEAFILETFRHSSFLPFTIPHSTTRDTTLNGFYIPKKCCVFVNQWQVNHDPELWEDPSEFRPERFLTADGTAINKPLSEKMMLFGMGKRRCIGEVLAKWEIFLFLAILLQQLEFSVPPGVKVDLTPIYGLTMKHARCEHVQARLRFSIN

Cytochrome P450 2C19 = Cytochrome P450 2C19 (Homo sapiens, UniProt P33261); test: Inhibition of CYP2C19 in human liver microsomes using mephenytoin as substrate preincubated for 10 mins with substrate followed by NADPH addition measured after 15 mins by LC/MS/MS analysis; assay type: ADME
Sequence of Cytochrome P450 2C19 (P33261 whole entry): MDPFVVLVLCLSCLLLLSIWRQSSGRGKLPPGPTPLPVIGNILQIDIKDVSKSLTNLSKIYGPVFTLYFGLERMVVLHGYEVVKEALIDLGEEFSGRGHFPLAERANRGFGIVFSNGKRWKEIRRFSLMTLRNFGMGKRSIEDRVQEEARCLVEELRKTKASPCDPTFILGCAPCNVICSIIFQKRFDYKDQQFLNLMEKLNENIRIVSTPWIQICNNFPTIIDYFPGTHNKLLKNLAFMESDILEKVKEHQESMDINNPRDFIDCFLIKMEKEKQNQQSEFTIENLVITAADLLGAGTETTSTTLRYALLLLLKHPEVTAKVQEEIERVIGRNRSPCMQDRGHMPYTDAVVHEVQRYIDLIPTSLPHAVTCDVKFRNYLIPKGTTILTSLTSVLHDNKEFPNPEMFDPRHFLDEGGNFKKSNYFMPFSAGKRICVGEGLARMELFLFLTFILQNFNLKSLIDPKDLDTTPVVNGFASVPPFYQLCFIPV

Cytochrome P450 2C9 = Cytochrome P450 2C9 (Homo sapiens, UniProt P11712); test: Inhibition of CYP2C9 in human liver microsomes using tolbutamide as substrate preincubated for 10 mins with substrate followed by NADPH addition measured after 15 mins by LC/MS/MS analysis; assay type: ADME
Sequence of Cytochrome P450 2C9 (P11712 whole entry): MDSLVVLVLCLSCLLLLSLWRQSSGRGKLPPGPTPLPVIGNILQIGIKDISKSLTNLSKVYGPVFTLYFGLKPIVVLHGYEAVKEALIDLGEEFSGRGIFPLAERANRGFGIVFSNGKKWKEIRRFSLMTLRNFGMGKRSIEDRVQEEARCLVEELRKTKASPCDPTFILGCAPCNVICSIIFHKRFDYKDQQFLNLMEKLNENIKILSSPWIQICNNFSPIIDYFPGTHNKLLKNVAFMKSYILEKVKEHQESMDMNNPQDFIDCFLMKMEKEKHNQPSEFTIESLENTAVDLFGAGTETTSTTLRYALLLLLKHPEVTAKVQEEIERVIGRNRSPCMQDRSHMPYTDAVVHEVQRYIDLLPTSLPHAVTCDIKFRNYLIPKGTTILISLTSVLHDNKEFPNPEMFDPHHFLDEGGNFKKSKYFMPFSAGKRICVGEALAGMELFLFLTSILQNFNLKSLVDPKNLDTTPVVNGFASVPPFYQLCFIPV

Cytochrome P450 2D6 = Cytochrome P450 2D6 (Homo sapiens, UniProt P10635); test: Inhibition of CYP2D6 in human liver microsomes using dextromethorphan as substrate preincubated for 10 mins with substrate followed by NADPH addition measured after 15 mins by LC/MS/MS analysis; assay type: ADME
Sequence of Cytochrome P450 2D6 (P10635 whole entry): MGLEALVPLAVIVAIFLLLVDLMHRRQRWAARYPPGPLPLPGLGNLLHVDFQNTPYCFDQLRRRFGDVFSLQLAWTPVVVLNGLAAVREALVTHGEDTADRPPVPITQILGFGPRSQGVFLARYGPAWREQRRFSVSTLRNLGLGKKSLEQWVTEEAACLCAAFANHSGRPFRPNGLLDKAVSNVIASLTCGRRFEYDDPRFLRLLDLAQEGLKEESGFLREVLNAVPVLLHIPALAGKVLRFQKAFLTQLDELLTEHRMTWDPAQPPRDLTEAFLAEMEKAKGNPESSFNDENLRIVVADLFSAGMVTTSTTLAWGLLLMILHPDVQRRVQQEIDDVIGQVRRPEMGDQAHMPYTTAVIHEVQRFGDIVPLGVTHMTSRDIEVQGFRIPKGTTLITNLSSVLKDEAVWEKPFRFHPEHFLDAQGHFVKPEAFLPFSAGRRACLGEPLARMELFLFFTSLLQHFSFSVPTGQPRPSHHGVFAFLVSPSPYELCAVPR

SMILES | MIC80 (Candida albicans [1]) [µg/mL] | MIC80 (Candida albicans [2]) [µg/mL] | MIC80 (Candida parapsilosis) [µg/mL] | MIC80 (Nakaseomyces glabratus) [µg/mL] | MIC80 (Cryptococcus neoformans) [µg/mL] | MIC80 (Aspergillus fumigatus) [µg/mL] | MIC80 (Trichophyton rubrum) [µg/mL] | MIC80 (Nannizzia gypsea) [µg/mL] | IC50 (Cytochrome P450 1A2) [µM] | IC50 (Cytochrome P450 2C19) [µM] | IC50 (Cytochrome P450 2C9) [µM] | IC50 (Cytochrome P450 2D6) [µM]
CS(=O)(=O)CCn1ncn(-c2ccc(C(F)(F)C(O)(Cn3cnnn3)c3ccc(F)cc3F)nc2)c1=O (stereo unspecified) | > 8 | > 8 | > 8 | > 8 | > 8 | > 8 | – | – | – | – | – | –
CCC(C)n1ncn(-c2ccc(C(F)(F)C(O)(Cn3cnnn3)c3ccc(F)cc3F)nc2)c1=O (stereo unspecified) | 1 (≈ 2.03 µM) | 1 (≈ 2.03 µM) | 0.25 (≈ 0.508 µM) | 2 (≈ 4.06 µM) | 4 (≈ 8.12 µM) | > 8 | – | – | – | – | – | –
O=c1n(-c2ccc(C(F)(F)C(O)(Cn3cnnn3)c3ccc(F)cc3F)nc2)cnn1C1CC=CCC1 (stereo unspecified) | 0.5 (≈ 0.968 µM) | 0.5 (≈ 0.968 µM) | 0.125 (≈ 0.242 µM) | 1 (≈ 1.94 µM) | 1 (≈ 1.94 µM) | > 64 | 2 (≈ 3.87 µM) | 8 (≈ 15.5 µM) | – | – | – | –
CC(O)Cn1ncn(-c2ccc(C(F)(F)C(O)(Cn3cnnn3)c3ccc(F)cc3F)nc2)c1=O (stereo unspecified) | > 8 | > 8 | 8 (≈ 16.2 µM) | > 8 | 8 (≈ 16.2 µM) | > 8 | – | – | – | – | – | –
O=c1n(-c2ccc(C(F)(F)C(O)(Cn3cnnn3)c3ccc(F)cc3F)nc2)cnn1C1CCCCC1 (stereo unspecified) | 0.25 (≈ 0.482 µM) | 0.25 (≈ 0.482 µM) | 0.25 (≈ 0.482 µM) | 0.25 (≈ 0.482 µM) | 0.125 (≈ 0.241 µM) | > 64 | 2 (≈ 3.86 µM) | 4 (≈ 7.71 µM) | 14.5 | 14.6 | 16.5 | 21.1
CC(C)(O)Cn1ncn(-c2ccc(C(F)(F)C(O)(Cn3cnnn3)c3ccc(F)cc3F)nc2)c1=O (stereo unspecified) | > 8 | > 8 | 4 (≈ 7.87 µM) | > 8 | > 8 | > 8 | – | – | – | – | – | –
O=c1n(-c2ccc(C(F)(F)C(O)(Cn3cnnn3)c3ccc(F)cc3F)nc2)cnn1C1CCC1 (stereo unspecified) | 0.25 (≈ 0.51 µM) | 1 (≈ 2.04 µM) | 0.5 (≈ 1.02 µM) | 1 (≈ 2.04 µM) | 0.5 (≈ 1.02 µM) | > 64 | 8 (≈ 16.3 µM) | > 64 | – | – | – | –
O=c1n(-c2ccc(C(F)(F)C(O)(Cn3cnnn3)c3ccc(F)cc3F)nc2)cnn1CCC1CCCCC1 (stereo unspecified) | 0.5 (≈ 0.915 µM) | 1 (≈ 1.83 µM) | 0.5 (≈ 0.915 µM) | 1 (≈ 1.83 µM) | 4 (≈ 7.32 µM) | > 64 | 8 (≈ 14.6 µM) | 4 (≈ 7.32 µM) | – | – | – | –
CC(C)C1CCC(n2ncn(-c3ccc(C(F)(F)C(O)(Cn4cnnn4)c4ccc(F)cc4F)nc3)c2=O)CC1 (stereo unspecified) | 8 (≈ 14.3 µM) | 16 (≈ 28.5 µM) | 16 (≈ 28.5 µM) | 16 (≈ 28.5 µM) | 16 (≈ 28.5 µM) | > 64 | 1 (≈ 1.78 µM) | > 64 | – | – | – | –
O=c1n(-c2ccc(C(F)(F)C(O)(Cn3cnnn3)c3ccc(F)cc3F)nc2)cnn1C1CCCCCC1 (stereo unspecified) | 0.5 (≈ 0.939 µM) | 1 (≈ 1.88 µM) | 0.5 (≈ 0.939 µM) | 1 (≈ 1.88 µM) | 0.5 (≈ 0.939 µM) | > 64 | – | > 64 | – | – | – | –
O=c1n(-c2ccc(C(F)(F)C(O)(Cn3cnnn3)c3ccc(F)cc3F)nc2)cnn1CC#CCO (stereo unspecified) | > 8 | > 8 | 4 (≈ 7.93 µM) | > 8 | > 8 | > 8 | – | – | – | – | – | –
OC(Cn1cnnn1)(c1ccc(F)cc1F)C(F)(F)c1ccc(-c2ccc(OCC(F)(F)F)cc2)cn1 (racemic) | 1 (≈ 1.9 µM) | 1 (≈ 1.9 µM) | 0.5 (≈ 0.948 µM) | 2 (≈ 3.79 µM) | 1 (≈ 1.9 µM) | > 8 | 2 (≈ 3.79 µM) | 8 (≈ 15.2 µM) | 28.9 | 8.5 | 11.5 | 8.7
OC(Cn1cncn1)(Cn1cncn1)c1ccc(F)cc1F [FLUCONAZOLE] | 2 (≈ 6.53 µM) | 0.5 (≈ 1.63 µM) | 1 (≈ 3.27 µM) | 0.5 (≈ 1.63 µM) | 0.5 (≈ 1.63 µM) | > 64 | 2 (≈ 6.53 µM) | 8 (≈ 26.1 µM) | – | – | – | –
